Test results as given in patent US7214535B2, “Glyphosate-tolerant 5-enolpyruvylshikimate-3-phosphate synthase and the gene encoding the same” (Peking University, priority 2002, dated 2007).

Test system: strain 4G-1
Experiment: Growth of isolated strain 4G-1 on media comprising glyphosate or Ampicillin
Format: cell-based, Pseudomonas putida
Protocol: The sample were taken from neighborhood of a glyphosate producing factory in Hebei Province, China, and were diluted and spread on mediums comprising glyphosate. A total of 48 strains are isolated with high tolerance and degradation ability to glyphosate. One strain of them, 4G-1, is able to grow on a medium with 400 mM glyphosate, and is resistant to 100 mg/L Ampicillin. Said strain is selected for further studies.
The resulting products are purified by a purification method for PCR product, and are ligated to a T vector (Takara, Dalian) according to the instruction of manufacturer Takara to obtain plasmid pKU2000. […] Using BLAST software and BLASTP 2.2.2 [Dec. […] Thus, strain 4G-1 is thought to be P. putida, and is designated as P. putida 4G-1 (abbreviated as P. P4G-1). Said strain is deposited on Apr. 30, 2002 at the Chinese General Microbiological Culture Centre (CGMCC) (ZhongGuan Cun, Beijing, China) with the accession number CGMCC 0739.

| Structure (SMILES) | growth of strain 4G-1 on medium with glyphosate (400 mM glyphosate) | resistance of strain 4G-1 to Ampicillin (100 mg/L Ampicillin) |
| --- | --- | --- |
| O=C(O)CNCP(=O)(O)O [glyphosate, N-phosphylmethyl glycine] | able to grow |  |
| CC1(C)S[C@@H]2[C@H](NC(=O)[C@H](N)c3ccccc3)C(=O)N2[C@H]1C(=O)O [Ampicillin] |  | resistant |
